# Test results taken from ChEMBL document CHEMBL3885881, “DrugMatrix”.
# Species on record: Rattus norvegicus
# Test: DrugMatrix - Regimen: Daily Repeat
# Assay type: toxicity, organism-based, Sprague-Dawley
# Set-up: regimen Daily Repeat, gender Male, age 6-8 weeks
# Conditions: in vivo, po, route oral GAVAGE, vehicle .5 % CMC; for BASOPHIL / EOSINOPHIL / ERYTHROCYTE COUNT / HEMATOCRIT / HEMOGLOBIN / LEUKOCYTE COUNT / LYMPHOCYTE / MEAN CORPUSCULAR HEMOGLOBIN / MEAN CORPUSCULAR HEMOGLOBIN CONCENTRATION / MEAN CORPUSCULAR VOLUME / MONOCYTE / NEUTROPHIL / PLATELET COUNT: tissue Blood; for ALANINE AMINOTRANSFERASE / ALBUMIN / ALKALINE PHOSPHATASE / ASPARTATE AMINOTRANSFERASE / BLOOD UREA NITROGEN / CHLORIDE / CHOLESTEROL / CREATINE PHOSPHOKINASE / CREATININE / GLUCOSE / PHOSPHORUS / POTASSIUM / SODIUM / TOTAL BILIRUBIN / TOTAL PROTEIN: tissue Plasma
# [1] = 0 mg/kg, 72 h, dose level Control, time 3 day
# [2] = 0 mg/kg, 120 h, dose level Control, time 5 day
# [3] = 3 mg/kg, 72 h, dose level Low, time 3 day
# [4] = 3 mg/kg, 120 h, dose level Low, time 5 day
smiles,measurement,setting,value
O=C1CCC(N2C(=O)c3ccccc3C2=O)C(=O)N1 (configuration not stated) [THALIDOMIDE],BASOPHIL,[1],1.52%
same,EOSINOPHIL,[1],0.98%
same,ERYTHROCYTE COUNT,[1],6.96 x10E6/uL
same,HEMATOCRIT,[1],44.65%
same,HEMOGLOBIN,[1],13.62 G/DL
same,LEUKOCYTE COUNT,[1],9.83 x10E3/uL
same,LYMPHOCYTE,[1],76.48%
same,MEAN CORPUSCULAR HEMOGLOBIN,[1],19.57 pg
same,MEAN CORPUSCULAR HEMOGLOBIN CONCENTRATION,[1],30.47 G/DL
same,MEAN CORPUSCULAR VOLUME,[1],64.22 fL
same,MONOCYTE,[1],2.13%
same,NEUTROPHIL,[1],18.6%
same,PLATELET COUNT,[1],1217.17 x10E3/uL
same,ALANINE AMINOTRANSFERASE,[1],41 u/L
same,ALBUMIN,[1],3.77 G/DL
same,ALKALINE PHOSPHATASE,[1],411.83 u/L
same,ASPARTATE AMINOTRANSFERASE,[1],62.83 u/L
same,BLOOD UREA NITROGEN,[1],15.17 mg/dL
same,CHLORIDE,[1],104.33 MEQ/L
same,CHOLESTEROL,[1],71.17 mg/dL
same,CREATINE PHOSPHOKINASE,[1],123.5 u/L
same,CREATININE,[1],0.55 mg/dL
same,GLUCOSE,[1],182.67 mg/dL
same,PHOSPHORUS,[1],11.23 mg/dL
same,POTASSIUM,[1],7.03 MEQ/L
same,SODIUM,[1],148 MEQ/L
same,TOTAL BILIRUBIN,[1],0.57 mg/dL
same,TOTAL PROTEIN,[1],6.85 G/DL
same,BASOPHIL,[2],1.35%
same,EOSINOPHIL,[2],0.43%
same,ERYTHROCYTE COUNT,[2],6.96 x10E6/uL
same,HEMATOCRIT,[2],44.35%
same,HEMOGLOBIN,[2],13.98 G/DL
same,LEUKOCYTE COUNT,[2],9.45 x10E3/uL
same,LYMPHOCYTE,[2],80.83%
same,MEAN CORPUSCULAR HEMOGLOBIN,[2],20.1 pg
same,MEAN CORPUSCULAR HEMOGLOBIN CONCENTRATION,[2],31.52 G/DL
same,MEAN CORPUSCULAR VOLUME,[2],63.72 fL
same,MONOCYTE,[2],2.37%
same,NEUTROPHIL,[2],14.05%
same,PLATELET COUNT,[2],1298 x10E3/uL
same,ALANINE AMINOTRANSFERASE,[2],42.17 u/L
same,ALBUMIN,[2],3.77 G/DL
same,ALKALINE PHOSPHATASE,[2],419 u/L
same,ASPARTATE AMINOTRANSFERASE,[2],66.67 u/L
same,BLOOD UREA NITROGEN,[2],16.67 mg/dL
same,CHLORIDE,[2],103.17 MEQ/L
same,CHOLESTEROL,[2],66.33 mg/dL
same,CREATINE PHOSPHOKINASE,[2],148.33 u/L
same,CREATININE,[2],0.58 mg/dL
same,GLUCOSE,[2],196.83 mg/dL
same,PHOSPHORUS,[2],11.8 mg/dL
same,POTASSIUM,[2],6.47 MEQ/L
same,SODIUM,[2],148.33 MEQ/L
same,TOTAL BILIRUBIN,[2],0.53 mg/dL
same,TOTAL PROTEIN,[2],6.77 G/DL
same,BASOPHIL,[3],1.53%
same,EOSINOPHIL,[3],0.27%
same,ERYTHROCYTE COUNT,[3],6.9 x10E6/uL
same,HEMATOCRIT,[3],43.27%
same,HEMOGLOBIN,[3],13.43 G/DL
same,LEUKOCYTE COUNT,[3],12.1 x10E3/uL
same,LYMPHOCYTE,[3],84.1%
same,MEAN CORPUSCULAR HEMOGLOBIN,[3],19.47 pg
same,MEAN CORPUSCULAR HEMOGLOBIN CONCENTRATION,[3],31.03 G/DL
same,MEAN CORPUSCULAR VOLUME,[3],62.73 fL
same,MONOCYTE,[3],2.13%
same,NEUTROPHIL,[3],11.37%
same,PLATELET COUNT,[3],1452.67 x10E3/uL
same,ALANINE AMINOTRANSFERASE,[3],33 u/L
same,ALBUMIN,[3],3.63 G/DL
same,ALKALINE PHOSPHATASE,[3],276 u/L
same,ASPARTATE AMINOTRANSFERASE,[3],53.33 u/L
same,BLOOD UREA NITROGEN,[3],11 mg/dL
same,CHLORIDE,[3],103 MEQ/L
same,CHOLESTEROL,[3],57.67 mg/dL
same,CREATINE PHOSPHOKINASE,[3],135.33 u/L
same,CREATININE,[3],0.5 mg/dL
same,GLUCOSE,[3],177.33 mg/dL
same,PHOSPHORUS,[3],12.77 mg/dL
same,POTASSIUM,[3],6.87 MEQ/L
same,SODIUM,[3],148.67 MEQ/L
same,TOTAL BILIRUBIN,[3],0.33 mg/dL
same,TOTAL PROTEIN,[3],6.27 G/DL
same,BASOPHIL,[4],2.03%
same,EOSINOPHIL,[4],0.3%
same,ERYTHROCYTE COUNT,[4],6.85 x10E6/uL
same,HEMATOCRIT,[4],42.57%
same,HEMOGLOBIN,[4],13.47 G/DL
same,LEUKOCYTE COUNT,[4],11.43 x10E3/uL
same,LYMPHOCYTE,[4],80.43%
same,MEAN CORPUSCULAR HEMOGLOBIN,[4],19.63 pg
same,MEAN CORPUSCULAR HEMOGLOBIN CONCENTRATION,[4],31.7 G/DL
same,MEAN CORPUSCULAR VOLUME,[4],62.13 fL
same,MONOCYTE,[4],3.03%
same,NEUTROPHIL,[4],13.67%
same,PLATELET COUNT,[4],1535.33 x10E3/uL
same,ALANINE AMINOTRANSFERASE,[4],37 u/L
same,ALBUMIN,[4],3.47 G/DL
same,ALKALINE PHOSPHATASE,[4],320 u/L
same,ASPARTATE AMINOTRANSFERASE,[4],57 u/L
same,BLOOD UREA NITROGEN,[4],12 mg/dL
same,CHLORIDE,[4],102.67 MEQ/L
same,CHOLESTEROL,[4],62.33 mg/dL
same,CREATINE PHOSPHOKINASE,[4],138 u/L
same,CREATININE,[4],0.5 mg/dL
same,GLUCOSE,[4],187.67 mg/dL
same,PHOSPHORUS,[4],11.93 mg/dL
same,POTASSIUM,[4],6.03 MEQ/L
same,SODIUM,[4],146.33 MEQ/L
same,TOTAL BILIRUBIN,[4],0.3 mg/dL
same,TOTAL PROTEIN,[4],6.13 G/DL
